Laboratory results published in PMC8534050, “Discovery of a Potent and Highly Isoform-Selective Inhibitor of the Neglected Ribosomal Protein S6 Kinase Beta 2 (S6K2)” (Cancers, 2021).

What was measured:
Experiment in all cases: DSF thermal shift assay
Format in all cases: binding
Conditions in all cases: inhibitor 10 μM, protein 2 μM
[1] = biological target: T1, AAK1 (Homo sapiens, UniProt Q2M2I8)
T1 construct: purchased in-house DSF (thermal shift) panel per Fedorov et al; IC50 follow-up at Reaction Biology Corp
Protocol: (§1) Differences in the melting temperature (ΔTm) were measured as described by Fedorov et al.. Purified proteins were buffered in 25 mM HEPES (pH 7.5), 500 mM NaCl and were assayed in a 384-well plate with a final protein concentration of 2 μM in 10 μL assay volume. Inhibitors were added to a final concentration of 10 μM using an ECHO 550 acoustic dispenser (Labcyte, San José, CA, USA). As a fluorescence probe, SYPRO-Orange (Molecular Probes, Eugene, OR, USA) was added in a 1:5000 dilution. […] Data were analyzed through Boltzmann equation in the Protein Thermal Shift software (Applied Biosystems, Waltham, MA, USA). Samples were measured in technical duplicates.

[2] = biological target: T2, AKT3 (Homo sapiens, UniProt Q9Y243)
T2 construct: purchased in-house DSF (thermal shift) panel per Fedorov et al
Protocol: as §1

[3] = biological target: T3, BMP2K (Homo sapiens, UniProt Q9NSY1)
T3 construct: purchased in-house DSF (thermal shift) panel per Fedorov et al
Protocol: as §1

[4] = biological target: T4, BMX (Homo sapiens, UniProt P51813)
T4 construct: purchased in-house DSF (thermal shift) panel per Fedorov et al; IC50 follow-up at Reaction Biology Corp
Protocol: as §1

[5] = biological target: T5, CAMK1G (Homo sapiens, UniProt Q96NX5)
T5 construct: purchased in-house DSF (thermal shift) panel per Fedorov et al; IC50 follow-up at Reaction Biology Corp
Protocol: as §1

[6] = biological target: T6, CAMK2D (Homo sapiens, UniProt Q13557)
T6 construct: purchased in-house DSF (thermal shift) panel per Fedorov et al
Protocol: as §1

[7] = biological target: T7, CASK (Homo sapiens, UniProt O14936)
T7 construct: purchased in-house DSF (thermal shift) panel per Fedorov et al; IC50 follow-up at Reaction Biology Corp
Protocol: as §1

[8] = biological target: T8, CHEK2 (Homo sapiens, UniProt O96017)
T8 construct: purchased in-house DSF (thermal shift) panel per Fedorov et al; IC50 follow-up at Reaction Biology Corp
Protocol: as §1

[9] = biological target: T9, CK2A1 (Homo sapiens, UniProt P68400)
T9 construct: purchased in-house DSF (thermal shift) panel per Fedorov et al
Protocol: as §1

[10] = biological target: T10, CLK1 (Homo sapiens, UniProt P49759)
T10 construct: purchased in-house DSF (thermal shift) panel per Fedorov et al; IC50 follow-up at Reaction Biology Corp
Protocol: as §1

[11] = biological target: T11, CSNK1D (Homo sapiens, UniProt P48730)
T11 construct: purchased in-house DSF (thermal shift) panel per Fedorov et al
Protocol: as §1

[12] = biological target: T12, CSNK2A2 (Homo sapiens, UniProt P19784)
T12 construct: purchased in-house DSF (thermal shift) panel per Fedorov et al
T12 sequence (P19784 whole entry): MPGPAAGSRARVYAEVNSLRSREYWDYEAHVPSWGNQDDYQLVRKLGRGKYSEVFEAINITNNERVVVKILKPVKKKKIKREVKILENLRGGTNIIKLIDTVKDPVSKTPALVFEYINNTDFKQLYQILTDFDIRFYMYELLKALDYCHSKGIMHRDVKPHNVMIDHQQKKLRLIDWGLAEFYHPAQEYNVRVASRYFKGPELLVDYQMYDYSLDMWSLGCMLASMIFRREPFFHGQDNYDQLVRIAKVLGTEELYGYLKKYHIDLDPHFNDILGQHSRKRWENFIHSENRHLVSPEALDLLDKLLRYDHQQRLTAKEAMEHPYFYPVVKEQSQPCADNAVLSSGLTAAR
Protocol: as §1

[13] = biological target: T13, DMPK1 (Homo sapiens, UniProt Q09013)
T13 construct: purchased in-house DSF (thermal shift) panel per Fedorov et al
Protocol: as §1

[14] = biological target: T14, DYRK1A (Homo sapiens, UniProt Q13627)
T14 construct: purchased in-house DSF (thermal shift) panel per Fedorov et al
Protocol: as §1

[15] = biological target: T15, DYRK2 (Homo sapiens, UniProt Q92630)
T15 construct: purchased in-house DSF (thermal shift) panel per Fedorov et al
Protocol: as §1

[16] = biological target: T16, FES (Homo sapiens, UniProt P07332)
T16 construct: purchased in-house DSF (thermal shift) panel per Fedorov et al; IC50 follow-up at Reaction Biology Corp
Protocol: as §1

[17] = biological target: T17, FLT1 (Homo sapiens, UniProt P17948)
T17 construct: purchased in-house DSF (thermal shift) panel per Fedorov et al
Protocol: as §1

[18] = biological target: T18, GPRK5 (Homo sapiens, UniProt P34947)
T18 construct: purchased in-house DSF (thermal shift) panel per Fedorov et al
Protocol: as §1

[19] = biological target: T19, MAP2K1 (Homo sapiens, UniProt Q02750)
T19 construct: purchased in-house DSF (thermal shift) panel per Fedorov et al
Protocol: as §1

[20] = biological target: T20, MAP3K5 (Homo sapiens, UniProt Q99683)
T20 construct: purchased in-house DSF (thermal shift) panel per Fedorov et al
Protocol: as §1

[21] = biological target: T21, MAPK1 (Homo sapiens, UniProt P28482)
T21 construct: purchased in-house DSF (thermal shift) panel per Fedorov et al; IC50 follow-up at Reaction Biology Corp
Protocol: as §1

[22] = biological target: T22, MAPK14 (Homo sapiens, UniProt Q16539)
T22 construct: purchased in-house DSF (thermal shift) panel per Fedorov et al
Protocol: as §1

[23] = biological target: T23, MAPK15 (Homo sapiens, UniProt Q8TD08)
T23 construct: purchased in-house DSF (thermal shift) panel per Fedorov et al
Protocol: as §1

[24] = biological target: T24, MAPK8 (Homo sapiens, UniProt P45983)
T24 construct: purchased in-house DSF (thermal shift) panel per Fedorov et al; IC50 follow-up at Reaction Biology Corp
Protocol: as §1

[25] = biological target: T25, MARK3 (Homo sapiens, UniProt P27448)
T25 construct: purchased in-house DSF (thermal shift) panel per Fedorov et al
Protocol: as §1

[26] = biological target: T26, MARK4 (Homo sapiens, UniProt Q96L34)
T26 construct: purchased in-house DSF (thermal shift) panel per Fedorov et al; IC50 follow-up at Reaction Biology Corp
T26 sequence (Q96L34 whole entry): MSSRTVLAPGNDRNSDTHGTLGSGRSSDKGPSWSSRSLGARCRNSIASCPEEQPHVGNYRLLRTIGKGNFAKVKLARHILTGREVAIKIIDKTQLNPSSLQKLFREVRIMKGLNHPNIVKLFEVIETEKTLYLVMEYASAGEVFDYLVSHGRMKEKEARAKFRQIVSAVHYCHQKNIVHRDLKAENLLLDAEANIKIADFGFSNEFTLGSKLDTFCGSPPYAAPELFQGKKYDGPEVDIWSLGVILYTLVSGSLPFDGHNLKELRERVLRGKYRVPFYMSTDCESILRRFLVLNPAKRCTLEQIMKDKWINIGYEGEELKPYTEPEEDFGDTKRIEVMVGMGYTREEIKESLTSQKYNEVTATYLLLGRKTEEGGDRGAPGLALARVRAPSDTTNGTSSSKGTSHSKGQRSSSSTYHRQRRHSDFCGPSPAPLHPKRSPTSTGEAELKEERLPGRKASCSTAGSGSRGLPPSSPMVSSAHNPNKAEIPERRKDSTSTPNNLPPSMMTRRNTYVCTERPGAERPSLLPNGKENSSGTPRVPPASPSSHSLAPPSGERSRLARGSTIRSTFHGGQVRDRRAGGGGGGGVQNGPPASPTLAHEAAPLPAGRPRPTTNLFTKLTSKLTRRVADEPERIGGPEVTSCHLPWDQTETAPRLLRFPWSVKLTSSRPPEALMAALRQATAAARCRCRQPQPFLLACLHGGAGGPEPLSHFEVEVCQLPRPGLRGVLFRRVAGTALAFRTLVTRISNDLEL
Protocol: as §1

[27] = biological target: T27, MST3 (Homo sapiens, UniProt Q9Y6E0)
T27 construct: purchased in-house DSF (thermal shift) panel per Fedorov et al
Protocol: as §1

[28] = biological target: T28, NEK1 (Homo sapiens, UniProt Q96PY6)
T28 construct: purchased in-house DSF (thermal shift) panel per Fedorov et al
T28 sequence (Q96PY6 whole entry): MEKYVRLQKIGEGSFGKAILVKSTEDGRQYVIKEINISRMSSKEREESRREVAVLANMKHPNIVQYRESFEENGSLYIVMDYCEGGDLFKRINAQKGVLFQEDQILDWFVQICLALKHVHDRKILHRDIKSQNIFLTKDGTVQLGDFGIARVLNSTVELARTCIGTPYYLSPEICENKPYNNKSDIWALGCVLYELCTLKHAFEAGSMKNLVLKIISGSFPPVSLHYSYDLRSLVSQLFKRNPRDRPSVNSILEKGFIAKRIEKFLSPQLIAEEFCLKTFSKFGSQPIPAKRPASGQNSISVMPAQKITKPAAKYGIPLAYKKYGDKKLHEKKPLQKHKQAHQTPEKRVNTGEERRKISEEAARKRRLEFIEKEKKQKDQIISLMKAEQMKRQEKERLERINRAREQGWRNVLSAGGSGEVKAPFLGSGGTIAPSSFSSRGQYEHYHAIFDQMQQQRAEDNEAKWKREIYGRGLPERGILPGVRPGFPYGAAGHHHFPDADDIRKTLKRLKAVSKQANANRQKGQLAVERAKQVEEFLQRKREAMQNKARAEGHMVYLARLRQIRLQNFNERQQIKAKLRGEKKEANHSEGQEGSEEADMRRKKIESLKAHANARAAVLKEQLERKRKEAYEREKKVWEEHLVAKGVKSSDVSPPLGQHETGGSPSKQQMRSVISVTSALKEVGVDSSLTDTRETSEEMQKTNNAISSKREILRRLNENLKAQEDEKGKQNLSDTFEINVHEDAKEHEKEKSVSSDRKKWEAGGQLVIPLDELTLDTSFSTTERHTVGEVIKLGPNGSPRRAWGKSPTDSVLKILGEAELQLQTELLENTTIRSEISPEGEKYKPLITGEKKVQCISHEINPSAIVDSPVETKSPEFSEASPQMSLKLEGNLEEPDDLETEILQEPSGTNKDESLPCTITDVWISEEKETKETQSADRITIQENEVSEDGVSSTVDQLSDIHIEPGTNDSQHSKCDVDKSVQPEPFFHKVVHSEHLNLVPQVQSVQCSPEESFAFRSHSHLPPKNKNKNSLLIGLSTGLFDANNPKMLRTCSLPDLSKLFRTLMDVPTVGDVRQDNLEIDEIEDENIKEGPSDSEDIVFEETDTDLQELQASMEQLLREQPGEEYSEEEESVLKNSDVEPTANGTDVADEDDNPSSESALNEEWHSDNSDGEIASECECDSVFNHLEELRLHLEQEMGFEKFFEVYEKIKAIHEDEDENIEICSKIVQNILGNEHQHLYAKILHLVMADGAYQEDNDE
Protocol: as §1

[29] = biological target: T29, NEK7 (Homo sapiens, UniProt Q8TDX7)
T29 construct: purchased in-house DSF (thermal shift) panel per Fedorov et al
Protocol: as §1

[30] = biological target: T30, PDK4 (Homo sapiens, UniProt Q16654)
T30 construct: purchased in-house DSF (thermal shift) panel per Fedorov et al; IC50 follow-up at Reaction Biology Corp
Protocol: as §1

[31] = biological target: T31, PHKG2 (Homo sapiens, UniProt P15735)
T31 construct: purchased in-house DSF (thermal shift) panel per Fedorov et al
Protocol: as §1

[32] = biological target: T32, PIM3 (Homo sapiens, UniProt Q86V86)
T32 construct: purchased in-house DSF (thermal shift) panel per Fedorov et al; IC50 follow-up at Reaction Biology Corp
Protocol: as §1

[33] = biological target: T33, RIOK2 (Homo sapiens, UniProt Q9BVS4)
T33 construct: purchased in-house DSF (thermal shift) panel per Fedorov et al; IC50 follow-up at Reaction Biology Corp
T33 sequence (Q9BVS4 whole entry): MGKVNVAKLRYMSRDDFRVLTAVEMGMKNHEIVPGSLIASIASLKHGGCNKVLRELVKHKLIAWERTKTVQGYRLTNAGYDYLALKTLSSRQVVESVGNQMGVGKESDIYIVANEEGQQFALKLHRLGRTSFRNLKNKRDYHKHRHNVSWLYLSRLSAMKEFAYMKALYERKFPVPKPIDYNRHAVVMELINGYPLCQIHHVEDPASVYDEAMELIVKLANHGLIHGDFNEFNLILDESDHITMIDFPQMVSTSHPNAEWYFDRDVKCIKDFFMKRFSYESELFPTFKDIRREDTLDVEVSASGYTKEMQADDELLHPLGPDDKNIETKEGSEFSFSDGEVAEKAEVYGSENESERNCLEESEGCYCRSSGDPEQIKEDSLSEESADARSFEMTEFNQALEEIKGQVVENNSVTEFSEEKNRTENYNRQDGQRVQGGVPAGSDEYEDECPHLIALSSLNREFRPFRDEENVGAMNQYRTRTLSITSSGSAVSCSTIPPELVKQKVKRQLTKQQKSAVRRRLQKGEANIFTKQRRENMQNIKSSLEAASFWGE
Protocol: as §1

[34] = biological target: T34, RPS6KA1 (Homo sapiens, UniProt Q15418)
T34 construct: purchased in-house DSF (thermal shift) panel per Fedorov et al
T34 sequence (Q15418 whole entry): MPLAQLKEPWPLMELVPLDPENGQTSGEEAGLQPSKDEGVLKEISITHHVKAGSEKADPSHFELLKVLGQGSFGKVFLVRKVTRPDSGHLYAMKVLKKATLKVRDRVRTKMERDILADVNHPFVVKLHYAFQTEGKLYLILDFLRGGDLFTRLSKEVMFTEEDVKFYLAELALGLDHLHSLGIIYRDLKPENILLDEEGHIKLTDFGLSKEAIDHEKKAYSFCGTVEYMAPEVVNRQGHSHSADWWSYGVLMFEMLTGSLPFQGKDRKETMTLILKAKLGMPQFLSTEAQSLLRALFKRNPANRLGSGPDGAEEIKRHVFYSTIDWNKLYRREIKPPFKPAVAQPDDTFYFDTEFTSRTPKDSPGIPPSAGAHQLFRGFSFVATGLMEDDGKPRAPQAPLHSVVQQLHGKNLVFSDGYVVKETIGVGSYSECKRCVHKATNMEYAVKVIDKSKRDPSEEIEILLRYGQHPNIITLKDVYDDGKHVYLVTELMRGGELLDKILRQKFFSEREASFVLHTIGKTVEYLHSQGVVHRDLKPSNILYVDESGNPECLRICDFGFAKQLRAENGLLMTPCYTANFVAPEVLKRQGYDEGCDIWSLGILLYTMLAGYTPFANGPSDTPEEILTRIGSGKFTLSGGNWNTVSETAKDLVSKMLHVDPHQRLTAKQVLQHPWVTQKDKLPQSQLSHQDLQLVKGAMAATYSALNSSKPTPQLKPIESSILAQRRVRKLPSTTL
Protocol: as §1

[35] = biological target: T35, SRC (Homo sapiens, UniProt P12931)
T35 construct: purchased in-house DSF (thermal shift) panel per Fedorov et al
T35 sequence (P12931 whole entry): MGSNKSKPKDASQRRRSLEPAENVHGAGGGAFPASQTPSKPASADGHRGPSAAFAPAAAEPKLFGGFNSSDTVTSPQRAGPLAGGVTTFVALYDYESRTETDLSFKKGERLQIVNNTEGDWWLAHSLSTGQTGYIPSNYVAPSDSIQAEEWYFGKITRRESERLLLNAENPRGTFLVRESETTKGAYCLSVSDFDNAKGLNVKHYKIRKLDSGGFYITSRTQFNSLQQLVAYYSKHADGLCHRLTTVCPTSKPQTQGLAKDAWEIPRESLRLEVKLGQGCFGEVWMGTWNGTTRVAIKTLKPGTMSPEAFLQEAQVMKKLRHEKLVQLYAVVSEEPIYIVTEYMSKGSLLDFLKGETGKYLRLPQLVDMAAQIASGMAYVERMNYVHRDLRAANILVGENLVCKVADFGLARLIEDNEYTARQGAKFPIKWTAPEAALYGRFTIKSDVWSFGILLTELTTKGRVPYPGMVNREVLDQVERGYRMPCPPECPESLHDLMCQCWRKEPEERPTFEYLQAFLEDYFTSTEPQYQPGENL
Protocol: as §1

[36] = biological target: T36, SRPK1 (Homo sapiens, UniProt Q96SB4)
T36 construct: purchased in-house DSF (thermal shift) panel per Fedorov et al
Protocol: as §1

[37] = biological target: T37, STK17B (Homo sapiens, UniProt O94768)
T37 construct: purchased in-house DSF (thermal shift) panel per Fedorov et al; IC50 follow-up at Reaction Biology Corp
Protocol: as §1

[38] = biological target: T38, STK4 (Homo sapiens, UniProt Q13043)
T38 construct: purchased in-house DSF (thermal shift) panel per Fedorov et al; IC50 follow-up at Reaction Biology Corp
T38 sequence (Q13043 whole entry): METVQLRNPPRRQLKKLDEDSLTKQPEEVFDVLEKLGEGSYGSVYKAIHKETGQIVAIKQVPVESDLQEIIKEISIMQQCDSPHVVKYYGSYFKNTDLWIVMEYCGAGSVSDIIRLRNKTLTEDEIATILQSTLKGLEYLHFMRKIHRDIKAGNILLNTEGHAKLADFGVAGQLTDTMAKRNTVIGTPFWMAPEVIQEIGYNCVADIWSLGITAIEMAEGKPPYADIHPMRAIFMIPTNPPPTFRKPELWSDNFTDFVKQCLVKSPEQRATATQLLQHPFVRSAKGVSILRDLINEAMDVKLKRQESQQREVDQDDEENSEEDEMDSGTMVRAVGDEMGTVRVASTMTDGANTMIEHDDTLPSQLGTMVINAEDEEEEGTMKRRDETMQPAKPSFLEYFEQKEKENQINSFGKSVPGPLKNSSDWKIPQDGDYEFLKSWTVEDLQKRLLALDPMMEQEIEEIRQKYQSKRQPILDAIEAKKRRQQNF
Protocol: as §1

[39] = biological target: T39, STK6 (Homo sapiens, UniProt O14965)
T39 construct: purchased in-house DSF (thermal shift) panel per Fedorov et al; IC50 follow-up at Reaction Biology Corp
Protocol: as §1

[40] = biological target: T40, TAF1 (Homo sapiens, UniProt P21675)
T40 construct: purchased in-house DSF (thermal shift) panel per Fedorov et al
Protocol: as §1

[41] = biological target: T41, ULK3 (Homo sapiens, UniProt Q6PHR2)
T41 construct: purchased in-house DSF (thermal shift) panel per Fedorov et al
Protocol: as §1

ΔTm at 10 µM [1]: -0.2 °C
ΔTm at 10 µM [2]: 0.2 °C
ΔTm at 10 µM [3]: 0 °C
ΔTm at 10 µM [4]: -0.5 °C
ΔTm at 10 µM [5]: -0.6 °C
ΔTm at 10 µM [6]: -0.1 °C
ΔTm at 10 µM [7]: -0.9 °C
ΔTm at 10 µM [8]: 0.4 °C
ΔTm at 10 µM [9]: 0.1 °C
ΔTm at 10 µM [10]: 0.3 °C
ΔTm at 10 µM [11]: 0.2 °C
ΔTm at 10 µM [12]: 0.4 °C
ΔTm at 10 µM [13]: 0.2 °C
ΔTm at 10 µM [14]: -2.4 °C
ΔTm at 10 µM [15]: 0.1 °C
ΔTm at 10 µM [16]: 0 °C
ΔTm at 10 µM [17]: 0.1 °C
ΔTm at 10 µM [18]: -0.6 °C
ΔTm at 10 µM [19]: -0.3 °C
ΔTm at 10 µM [20]: 0.2 °C
ΔTm at 10 µM [21]: -0.2 °C
ΔTm at 10 µM [22]: -0.5 °C
ΔTm at 10 µM [24]: 0.3 °C
ΔTm at 10 µM [25]: 0.9 °C
ΔTm at 10 µM [26]: 0.1 °C
ΔTm at 10 µM [27]: -0.3 °C
ΔTm at 10 µM [28]: -0.7 °C
ΔTm at 10 µM [29]: 0.2 °C
ΔTm at 10 µM [30]: -0.1 °C
ΔTm at 10 µM [31]: 0.2 °C
ΔTm at 10 µM [32]: -0.6 °C
ΔTm at 10 µM [33]: -0.8 °C
ΔTm at 10 µM [34]: 0.3 °C
ΔTm at 10 µM [35]: -0.5 °C
ΔTm at 10 µM [36]: 0 °C
ΔTm at 10 µM [37]: -0.8 °C
ΔTm at 10 µM [38]: -0.5 °C
ΔTm at 10 µM [39]: 0.2 °C
ΔTm at 10 µM [40]: 0.1 °C
ΔTm at 10 µM [41]: 0.4 °C
Compound: CCc1cnc(Nc2nc(Cl)ccc2[N+](=O)[O-])nc1N1CCN(Cc2nc3cc(C(F)(F)F)ccc3[nH]2)CC1 [Compound 2]
ΔTm at 10 µM [23]: -0.2 °C
